The target of experiment [1] is T1, Human EP4 (Homo sapiens, UniProt P35408). The experiment in a line: [3H]-PGE2 receptor binding assay, EP4 membranes. Set-up: expressed in transfected cells; membrane preparation. The note with it: HEK293 membranes, geometric mean ± SEM, read-out: hEP1-4 receptor binding EP4 Ki. As to the method:
(§1) Receptor binding assays were done using membrane preparations of HEK 293 cells transfected with various prostanoid receptors using previously published procedure (Nakao et al. 2007). EP1 and EP4 membranes were prepared from recombinant HEK293 cells stably expressing human EPl receptor (GenBank Accession # AY275470, Clone ID PER0100000, UMR cDNA Resource Center, Rolla, MO) or human EP4 receptor. EP2 and EP3 membranes were prepared from HEK293 cells transiently transfected with human EP2 receptor (GenBank Accession # AY275471, Clone ID PER0200000, UMR cDNA Resource Center, Rolla, MO) or human EP3 receptor (GenBank Accession # AY429108, Clone ID PER3VI0000, UMR cDNA Resource Center, Rolla, MO) plasmids. Frozen cell pellets were homogenized in homogenization buffer (10 mmol/L Tris‐HCl, pH7.4, 250 mmol/L sucrose, 1 mmol/L EDTA, 0.3 mmol/L indomethacin and protease inhibitor cocktail with EDTA (Roche Molecular Biochemicals, catalog # 1691498)) using a Teflon/glass homogenizer. After a low speed centrifugation (200g for 15 min at 4°C) the supernatant was subjected to high speed centrifugation (30,000g for 60 min at 4°C). Membrane protein preparation was aliquoted and quick frozen on dry ice prior to storage at −80°C. […] Compounds were tested in a 96‐well format using a three‐fold dilution series to generate 10‐point curves. […] The binding reaction was performed in 200 μL MES buffer (10 mmol/L MES, pH 6.0, 10 mmol/L MgCl2, and l mmol/L EDTA) using polystyrene 96‐well plates. […] The membranes were harvested by filtration (TomTek harvester), washed four times with cold buffer (10 mmol/L MES, pH 6.0, 10 mmol/L MgCl2), dried in a 60°C oven, and the radioactivity was quantified as counts per min (CPM) using a TopCount detector. […] Data were analyzed using a 4‐parameter nonlinear logistic equation. K i Conversion from IC50 Values (K i = […] where [L] is the ligand concentration). Results are expressed as the geometric mean ± standard deviation or geometric mean ± standard error as noted.

The test system of the next experiment is dogs with osteoarthritis. The arrangement: method as in Rausch‐Derra et al. 2016. The note with it: prospective placebo controlled study, ref Rausch‐Derra et al. 2016; cited from earlier work.
A further experiment addresses T2, Rat EP4 (Rattus norvegicus, UniProt P43114).
T2 construct: expressed in transfected cells
The experiment in a line: EP4 cAMP antagonist assay (HTRF), rat EP4. Type of experiment: cell-based. As to conditions: read-out: cAMP Antagonism Rat EP4 IC50. As to the method: (§2) Human EP4 (GenBank Accession # AY429109, Clone ID PER0400000, UMR cDNA Resource Center, Rolla, MO) was stably expressed in HEK293 cells. Rat EP4 cDNA (GenBank Accession# NM_03276) was cloned into pcDNA 3.1 vector and stably transfected into HEK293 cells. The cell lines were maintained in DMEM (invitrogen) supplemented with 10% fetal bovine serum (FBS), 1 mmol/L sodium pyruvate, 10 mmol/L HEPES, 500 μg/mL geneticin and 2 mmol/L L‐glutamine. Confluent cultures were grown at 37°C in an atmosphere containing 5% CO2. Cells were harvested using 0.25% Trypsin‐ EDTA, suspended in freeze media at a density of 10^7cel1s/mL, and aliquots were stored in liquid nitrogen. Immediately prior to the assay, cells were thawed with DMEM and suspended in cAMP assay buffer (HBSS with 0.1% BSA, 20 mmol/L HEPES and 200 μmol/L IBMX).
CJ‐023,423 served as the positive control. To measure the cAMP levels, cAMP‐d2 conjugate and anti cAMP‐cryptate conjugate in lysis buffer were incubated with the treated cells at room temperature for 1 h. The HTRF signal was detected using an EnVision plate reader (Perkin‐Elmer, Inc., Waltham, MA, USA.) to calculate the ratio of fluorescence at 665 to 620 nm. The raw data were converted to cAMP (nmol/L) using a cAMP standard curve generated for each experiment. Data were analyzed using a 4‐parameter nonlinear logistic equation. Results are expressed as the geometric mean ± standard deviation or geometric mean ± standard error as noted.
(In TR-FRET formats the signal depends on donor and acceptor labels being close together.)

The next experiment concerns the target T3, human EP3 receptor (Homo sapiens, UniProt P43115).
T3 sequence (P43115 1-359 limits assumed): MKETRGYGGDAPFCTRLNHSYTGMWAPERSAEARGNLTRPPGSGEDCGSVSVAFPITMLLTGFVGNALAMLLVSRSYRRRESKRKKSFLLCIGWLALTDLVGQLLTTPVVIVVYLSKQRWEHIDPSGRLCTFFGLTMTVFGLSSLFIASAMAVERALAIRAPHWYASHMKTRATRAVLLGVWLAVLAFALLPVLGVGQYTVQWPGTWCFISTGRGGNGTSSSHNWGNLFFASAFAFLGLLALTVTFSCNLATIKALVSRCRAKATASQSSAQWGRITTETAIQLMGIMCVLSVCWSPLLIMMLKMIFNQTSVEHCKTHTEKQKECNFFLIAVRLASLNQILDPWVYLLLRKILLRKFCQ
As to the kind of experiment: [3H]-PGE2 receptor binding assay, EP3 membranes. As to conditions: HEK293 membranes, geometric mean ± SEM, read-out: hEP1-4 receptor binding EP3 Ki. As to the method:
as §1

Another experiment has as its target T4, human EP2 receptor (Homo sapiens, UniProt P43116).
T4 construct: host or cells: HEK293, transient; membrane preparation
As to the kind of experiment: [3H]-PGE2 receptor binding assay, EP2 membranes. As to conditions: HEK293 membranes; [3H]-PGE2; geometric mean ± SEM; read-out: hEP1-4 receptor binding EP2 Ki. As to the method: as §1

The target of the next experiment is T5, human EP1 receptor (Homo sapiens, UniProt P34995).
T5 construct: membrane preparation
T5 sequence (P34995 1-402): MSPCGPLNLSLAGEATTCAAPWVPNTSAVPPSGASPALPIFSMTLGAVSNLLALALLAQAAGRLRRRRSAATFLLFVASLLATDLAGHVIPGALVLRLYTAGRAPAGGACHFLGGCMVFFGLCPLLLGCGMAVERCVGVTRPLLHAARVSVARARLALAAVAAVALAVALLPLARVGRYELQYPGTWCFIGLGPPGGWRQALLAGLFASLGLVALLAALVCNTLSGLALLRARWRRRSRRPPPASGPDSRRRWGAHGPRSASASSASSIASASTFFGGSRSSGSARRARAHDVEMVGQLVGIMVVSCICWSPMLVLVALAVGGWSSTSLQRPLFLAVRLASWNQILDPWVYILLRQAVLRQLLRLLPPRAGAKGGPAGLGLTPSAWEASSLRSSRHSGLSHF
The experiment in a line: [3H]-PGE2 receptor binding assay, EP1 membranes. As to the method:
as §1

The target in experiment [2] is T1, Human EP4. The experiment in a line: EP4 cAMP antagonist assay (HTRF), human EP4. Type of experiment: cell-based. As to conditions: HEK293 cells stably expressing human EP4; PGE2 at EC80; geometric mean ± SEM; read-out: cAMP Antagonism (hEP4) Human EP4 IC50. As to the method:
as §2, with “Cells were harvested using 0.25% Trypsin‐ EDTA, suspended in freeze media at a density of 10^7cel1s/mL, and aliquots were stored in liquid nitrogen.” left out
(§3) To measure the cAMP levels, cAMP‐d2 conjugate and anti cAMP‐cryptate conjugate in lysis buffer were incubated with the treated cells at room temperature for 1 h. […] The raw data were converted to cAMP (nmol/L) using a cAMP standard curve generated for each experiment. Data were analyzed using a 4‐parameter nonlinear logistic equation. Results are expressed as the geometric mean ± standard deviation or geometric mean ± standard error as noted.

Experiment [3] has as its target T1, Human EP4. As to the kind of experiment: PGE2 stimulated cAMP production by HEK293/EP4 cell line. Type of experiment: cell-based. As to the method: as §2, with “Cells were harvested using 0.25% Trypsin‐ EDTA, suspended in freeze media at a density of 10^7cel1s/mL, and aliquots were stored in liquid nitrogen.” left out
as §3
(In general: Cyclic AMP is a second messenger, typically raised through Gs and lowered through Gi signalling.)

The subject of experiment [4] is male Lewis rats, adjuvant induced arthritis. The experiment in a line: AIA model of inflammation (paw swelling). The note with it: rat AIA; 10 mg/kg oral once daily 4 days; P < 0.05 by Dunnett's test. Type of experiment: in vivo. The procedure: (§4) For the monoiodoacetate (MIA) and adjuvant induced arthritis (AIA) studies, male Lewis rats (Envigo, Indianapolis, IN) of approximately 8 weeks of age at the time of disease induction were used. For collagen induced arthritis studies (CIA) female Lewis rats (Charles River) weighing 150–170 g were used. Rats were housed in groups of 2 or 3 per cage and maintained in a constant temperature, and on a 12 h light/12 h dark cycle. Animals had free access to food and water at all times except during data collection.
On Day 0, paw widths of both right and left paws were measured between the lateral and dorsal surfaces using calipers, and a mean paw thickness for each rat was calculated by averaging these measurements. Rats were then inoculated intradermally with 0.25 mg of adjuvant (M. Tuberculosis H37 RA from Difco) in 100 μL of mineral oil at the base of the tail to induce adjuvant disease. Eleven days post inoculation paw widths of both right and left paws were measured again, and the percent change from the Day 0 reading was calculated. […] On the fifth day after dosing started (day 15 post adjuvant injection) the rats were euthanized without further dosing and paw width measured again. The percent increase in mean paw thickness from day 11 to day 15 was then calculated as a measure of paw swelling which is indicative of the amount of inflammation in the paws measured. […]

Experiment [5] relates to female Lewis rats, collagen induced arthritis. The experiment in a line: Type-II CIA model of inflammation and autoimmunity. The note with it: rat CIA. Type of experiment: in vivo. As to the method:
as §4
On day 1 of the study ankle widths are measured across the joint (left side to right side) at the thickest point with calipers and rats immunized intradermally near the base of the tail with 0.4 mL of 1 mg/mL type II collagen (Elastin Products) emulsified with incomplete Freund's adjuvant (Sigma Aldrich). A second booster injection booster of 0.4 mL of the collagen emulsion was given on day 8 of the study. Ankle widths were measured on day 8 before the collagen injection and every 2–3 days thereafter until study end. On day 11 rats were randomized into five groups of eight animals based on inflammation (redness and/or swelling) in their hind paws and body weight. Rats were then dosed with vehicle (10% Acacia plus 0.05% antifoam) and compound 3 at doses of 3, 10, and 30 mg/kg. Prednisolone was included at a dose of 10 mg/kg as a positive control. Dosing was by oral gavage once daily for seventeen days at a dose volume of 5 mL/kg. On day 28 rats were euthanized and hind paws and knee joints collected for histology. Ankles and knees were fixed in neutral buffered formalin, decalcified, embedded in paraffin, and sectioned according to standard histological methodology and the joints were then scored by a pathologist using published scoring criteria (Bendele 2001; Levine et al. 2014).

The mark [6] stands for this setting: 10 mg/kg oral once daily for seventeen days.

SMILES strings stand for the structures. “And” between values parts separate entries of the source, which are not always exact repeats. Identical values can stand only once.

T1 sequence (P35408 whole entry): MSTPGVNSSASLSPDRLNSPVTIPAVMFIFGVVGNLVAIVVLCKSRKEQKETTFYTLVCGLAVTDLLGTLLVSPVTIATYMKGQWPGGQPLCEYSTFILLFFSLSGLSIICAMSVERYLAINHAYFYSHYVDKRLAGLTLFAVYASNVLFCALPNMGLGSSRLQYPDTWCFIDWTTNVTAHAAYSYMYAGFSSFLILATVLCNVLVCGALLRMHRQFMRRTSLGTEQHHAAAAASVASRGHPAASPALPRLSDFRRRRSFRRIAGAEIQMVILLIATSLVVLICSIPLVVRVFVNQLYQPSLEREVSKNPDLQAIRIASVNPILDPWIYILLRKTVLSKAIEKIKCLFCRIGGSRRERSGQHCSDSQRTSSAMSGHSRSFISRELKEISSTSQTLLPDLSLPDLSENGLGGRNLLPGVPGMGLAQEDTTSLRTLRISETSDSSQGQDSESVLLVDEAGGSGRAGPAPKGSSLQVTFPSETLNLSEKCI
T4 sequence (P43116 whole entry): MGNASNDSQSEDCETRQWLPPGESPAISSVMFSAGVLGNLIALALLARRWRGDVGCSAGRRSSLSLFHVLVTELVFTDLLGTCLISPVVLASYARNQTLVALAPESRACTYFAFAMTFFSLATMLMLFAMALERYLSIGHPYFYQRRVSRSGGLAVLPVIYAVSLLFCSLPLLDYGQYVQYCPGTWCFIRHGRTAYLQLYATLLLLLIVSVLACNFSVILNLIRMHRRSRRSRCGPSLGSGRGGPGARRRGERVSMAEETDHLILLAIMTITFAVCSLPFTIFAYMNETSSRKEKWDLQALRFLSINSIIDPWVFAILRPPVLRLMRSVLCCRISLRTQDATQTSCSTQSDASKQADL
T2 sequence (P43114 whole entry): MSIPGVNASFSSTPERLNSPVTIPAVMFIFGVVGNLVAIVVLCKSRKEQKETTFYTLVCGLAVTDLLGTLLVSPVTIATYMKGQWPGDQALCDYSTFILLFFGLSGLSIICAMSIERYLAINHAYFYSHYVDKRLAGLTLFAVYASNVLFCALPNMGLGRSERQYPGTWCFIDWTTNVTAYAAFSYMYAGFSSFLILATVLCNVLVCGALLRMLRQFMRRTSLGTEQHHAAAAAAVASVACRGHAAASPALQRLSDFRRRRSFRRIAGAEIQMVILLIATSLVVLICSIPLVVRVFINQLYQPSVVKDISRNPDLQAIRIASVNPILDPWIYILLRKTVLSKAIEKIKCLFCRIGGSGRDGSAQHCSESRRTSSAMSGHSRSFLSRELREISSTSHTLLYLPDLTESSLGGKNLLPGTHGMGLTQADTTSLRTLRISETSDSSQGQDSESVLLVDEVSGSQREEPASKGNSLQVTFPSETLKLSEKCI

A word on the Ki: it is a measure of affinity in units of concentration, obtained from inhibition or displacement. What is called IC50 is the point on the concentration scale where inhibition reaches its midpoint. In the case of `CCc1nc2c(C)nc(C)cc2n1-c1ccc(CCNC(=O)NS(=O)(=O)c2ccc(C)cc2)cc1` [CJ‐023,423, N‐[({2‐[4‐(2‐ethyl‐4, 6‐dimethyl‐1H‐imidazo [4, 5–c]pyridin‐1‐yl)phenyl]ethyl}amino)carbonyl]‐4‐methylbenzenesulfonamide, reference compound], the Ki at Human EP4 [1] was 449 ± 123 nM; at human EP3 receptor it was more than 19500 nM; at human EP2 receptor, more than 21600 nM; at human EP1 receptor (HEK293 membranes, [3H]-PGE2, geometric mean ± SEM, read-out: hEP1-4 receptor binding EP1 Ki), more than 22900 nM. In addition, in the experiment on dogs with osteoarthritis, the “efficacy for signs and symptoms of OA” value is given as “efficacious”. Further, the half-inhibitory concentration (IC50) on Rat EP4 is 13.1 ± 1 nM; on Human EP4 [2], 12 nM and 11.7 nM.
As to `CCCCC[C@H](O)/C=C/[C@H]1[C@H](O)CC(=O)[C@@H]1C/C=C\CCCC(=O)O` [PGE2, Prostaglandin (PG) E2], the “EC80 cAMP production” value on Human EP4 [3] (HEK 293 cells stably transfected with human EP4 cDNA, 20 min) came out at 0.34 nM. For the same compound, on Human EP4 [3] (HEK‐293 cells stably transfected with human EP4 cDNA, 20 min at room temperature), the “EC80 cAMP production (Fig. 2A)” value was 0.34 nM.
Consider `CCCCC[C@H](O)/C=C/[C@H]1[C@H](O)CC(=O)[C@@H]1C/C=C\CCCC(=O)O` [^3[H] PGE2], for which the Kd on human EP1 receptor (read-out: ^3[H] PGE2 Binding/kd EP1, HEK 293 membranes, homologous competition (Fig. 3D)) was 5.62 nM.
As for `O=C(O)Cc1ccccc1Nc1c(Cl)cccc1Cl` [diclofenac, reference compound], the “increases in paw inflammation (swelling) compared to vehicle” value in experiment [4] is “significantly inhibited”.
For `C[C@]12C=CC(=O)C=C1CC[C@@H]1[C@@H]2[C@@H](O)C[C@@]2(C)[C@H]1CC[C@]2(O)C(=O)CO` [prednisolone, Prednisolone], in experiment [5] (setting [6]), the “reduction in summed scores (ankle histology)” value is listed as 93% and the “reductions in all ankle scores (histology)” value is recorded as 87–99%. The ankle thickness result in experiment [5] (10 mg/kg oral once daily, data not shown) is “significant reduction”. Besides, the “knee joint histopathology (representative photomicrograph)” value in experiment [5] (Fig. 10 bottom panel, prednisolone 10 mg/kg, compound 3 dose not given) was “very minimal inflammation (S) and cartilage damage not visible at this magnification”. In experiment [5] (Fig. 10 top panel, prednisolone 10 mg/kg, compound 3 dose not given), the “ankle joint histopathology (representative photomicrograph)” value is “minimal inflammation (S) and minimal cartilage damage”.
